Read-outs that look alike come from different tables or passages of the source.
Experiments:
Format in all cases: in vivo
wild oat (Avena fatua) = experiment: Test C pre-/postemergence: wild oat
Outline: (§1)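 Preemergence on seeds in loam/sand, postemergence on 2–18 cm (1–4-leaf) plants in peat-based medium; compounds in non-phytotoxic solvent with surfactant. After 13–15 days in greenhouse, visual rating versus controls, 0 (no effect) to 100 (complete control).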

[1] = system: surinam grass (Brachiaria decumbens); experiment: Test C pre-/postemergence: surinam grass
Outline: as §1

[2] = system: lambsquarters (Chenopodium album); experiment: Test C pre-/postemergence: lambsquarters
Outline: as §1

[3] = system: canarygrass (Phalaris minor); experiment: Test C postemergence: canarygrass
Outline: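 Crop and weed plants were grown in peat-vermiculite medium and treated postemergence at the 1- to 4-leaf stage (2-18 cm tall). After 13-15 days in a greenhouse, each species was rated visually against untreated controls on a 0-100 scale (0 no effect, 100 complete control).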

[4] = system: barnyardgrass (Echinochloa crus-galli); experiment: Test C flooded paddy test: barnyardgrass; settings: Echinochloa crus-galli, scale 0 to 100 (0 no effect, 100 complete control), read-out: Plant response rating, Barnyardgrass; for pest or weed control at 62 g/ha: 62 g ai/ha; for pest or weed control at 125 g/ha: 125 g ai/ha; for pest or weed control at 250 g/ha: 250 g ai/ha; for pest or weed control at 31 g/ha: 31 g ai/ha
Outline: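 Plants at 2-leaf stage in pots flooded 3 cm above soil; compounds applied directly into the paddy water, depth maintained. Visual rating against controls after 13–15 days in greenhouse, scale 0 (no effect) to 100 (complete control).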

[5] = system: chamomile (scentless chamomile, Matricaria inodora); experiment: Test D pre-/postemergence: chamomile
Outline: (§2)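 Species were sown in silt loam and sprayed preemergence, or grown in peat/vermiculite medium and sprayed postemergence at the 1- to 4-leaf stage (2–18 cm), with compounds in a surfactant-containing solvent. Injury was visually rated against untreated controls after 14–21 days, on a 0 (no effect) to 100 (complete control) scale.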

[6] = system: wheat, spring (spring wheat, Triticum aestivum); experiment: Test D pre-/postemergence: wheat, spring
Outline: as §2

[7] = system: oat, wild (wild oat, Avena fatua); experiment: Test D pre-/postemergence: oat, wild
Outline: as §2

[8] = system: windgrass (Apera spica-venti); experiment: Test D pre-/postemergence: windgrass
Outline: as §2

[9] = Postemergence, 31 g ai/ha, scale 0 to 100 (0 no effect, 100 complete control)
[10] = Postemergence, 62 g ai/ha, scale 0 to 100 (0 no effect, 100 complete control)
[11] = Postemergence, 125 g ai/ha, scale 0 to 100, 0 no effect, 100 complete control
[12] = Postemergence, 250 g ai/ha, scale 0 to 100
[13] = Preemergence, 31 g ai/ha, scale of 0 to 100, 0 is no effect, 100 is complete control
[14] = Preemergence, 62 g ai/ha, scale of 0 to 100, 0 is no effect, 100 is complete control
[15] = Preemergence, 125 g ai/ha, scale 0 to 100, 0 no effect, 100 complete control
[16] = Preemergence, 250 g ai/ha, scale 0 to 100, 0 no effect, 100 complete control
[17] = 31 g ai/ha, scale 0 to 100 (0 no effect, 100 complete control)
[18] = 62 g ai/ha, scale 0 to 100 (0 no effect, 100 complete control)
[19] = 125 g ai/ha, scale 0 to 100, 0 no effect, 100 complete control
[20] = Flood (flooded paddy test), visual rating after 13 to 15 days
[21] = Postemergence, 250 g ai/ha, scale 0 to 100 (0 no effect, 100 complete control)
[22] = Postemergence, 16 g ai/ha, scale 0 to 100
[23] = Preemergence, 16 g ai/ha, scale 0 to 100 (0 no effect, 100 complete control)
[24] = Preemergence, 31 g ai/ha, scale 0 to 100 (0 no effect, 100 complete control)
[25] = Preemergence, 62 g ai/ha, scale 0 to 100
[26] = Preemergence, 125 g ai/ha, scale 0 to 100
[27] = Preemergence, 250 g ai/ha, scale 0 to 100

Cc1nn(-c2ccc(F)cc2)nc1Cc1ccnc(C(F)(F)F)c1 [Compound 16, 4-[[2-(4-fluorophenyl)-5-methyl-2H-1,2,3-triazol-4-yl]methyl]-2-(trifluoromethyl)pyridine]
10: Plant response rating, Oat, Wild (wild oat (Avena fatua); [10]) | Plant response rating, Surinam Grass [1, 11] | Plant response rating: Chamomile [5, 21] | Plant response rating: Wheat, Spring [6, 9] | Plant response rating: Wheat, Spring [6, 10] | Plant response rating, Wheat, Spring [6, 27] | Plant response rating: Oat, Wild [7, 9] | Plant response rating, Oat, Wild [7, 24] | Plant response rating, Oat, Wild [7, 25] | Plant response rating: Windgrass [8, 9]
80: Plant response rating, Oat, Wild (wild oat (Avena fatua); [12])
60: Plant response rating, Canarygrass [3, 18] | Plant response rating, Canarygrass [3, 19]
0: Plant response rating: Chamomile [5, 9] | Plant response rating: Chamomile [5, 10] | Plant response rating, Chamomile [5, 22] | Plant response rating, Chamomile [5, 23] | Plant response rating, Chamomile [5, 24] | Plant response rating, Wheat, Spring [6, 23] | Plant response rating, Wheat, Spring [6, 24] | Plant response rating, Wheat, Spring [6, 25] | Plant response rating, Oat, Wild [7, 22] | Plant response rating, Oat, Wild [7, 23] | Plant response rating, Windgrass [8, 22]
65%: pest or weed control at 62 g/ha [4, 20]
70: Plant response rating, Chamomile [5, 26]
20: Plant response rating, Oat, Wild (wild oat (Avena fatua); [11]) | Plant response rating, Canarygrass [3, 17] | Plant response rating: Wheat, Spring [6, 21] | Plant response rating: Windgrass [8, 10] | Plant response rating, Windgrass [8, 23] | Plant response rating, Windgrass [8, 24]
45: Plant response rating, Surinam Grass [1, 12] | Plant response rating: Oat, Wild [7, 11]
95: Plant response rating, Lambsquarters [2, 9]
25: Plant response rating, Chamomile [5, 25] | Plant response rating: Windgrass [8, 11]
30: Plant response rating: Oat, Wild [7, 10]
50: Plant response rating: Oat, Wild [7, 21]
25%: pest or weed control at 31 g/ha ([4]; Flood)
80%: pest or weed control at 250 g/ha [4, 20]
70%: pest or weed control at 125 g/ha [4, 20]
35: Plant response rating: Windgrass [8, 21]
90: Plant response rating, Canarygrass ([3]; 250 g ai/ha, scale 0 to 100) | Plant response rating, Windgrass [8, 25]
15: Plant response rating: Wheat, Spring [6, 11]
5: Plant response rating, Oat, Wild (wild oat (Avena fatua); [9]) | Plant response rating, Surinam Grass [1, 9] | Plant response rating, Surinam Grass [1, 10] | Plant response rating: Chamomile [5, 11] | Plant response rating, Wheat, Spring [6, 22] | Plant response rating, Wheat, Spring [6, 26]
98: Plant response rating, Oat, Wild (wild oat (Avena fatua); [13])
100: Plant response rating, Oat, Wild (wild oat (Avena fatua); [14]) | Plant response rating, Oat, Wild (wild oat (Avena fatua); [15]) | Plant response rating, Oat, Wild (wild oat (Avena fatua); [16]) | Plant response rating, Lambsquarters [2, 10] | Plant response rating, Lambsquarters [2, 11] | Plant response rating, Lambsquarters [2, 12] | Plant response rating, Chamomile [5, 27] | Plant response rating, Oat, Wild [7, 26] | Plant response rating, Oat, Wild [7, 27] | Plant response rating, Windgrass [8, 26] | Plant response rating, Windgrass [8, 27]

Cc1nn(-c2ccc(F)cc2)nc1Oc1ccnc(C(F)(F)F)c1 [Compound 129, 4-[[2-(4-fluorophenyl)-5-methyl-2H-1,2,3-triazol-4-yl]oxy]-2-(trifluoromethyl)pyridine]
85%: pest or weed control at 250 g/ha [4, 20]
25: Plant response rating: Oat, Wild [7, 21]
35: Plant response rating, Oat, Wild (wild oat (Avena fatua); [10]) | Plant response rating: Chamomile [5, 21]
60: Plant response rating, Surinam Grass [1, 12]
0: Plant response rating, Chamomile [5, 23] | Plant response rating, Wheat, Spring [6, 23] | Plant response rating, Wheat, Spring [6, 24] | Plant response rating, Wheat, Spring [6, 25] | Plant response rating, Oat, Wild [7, 23] | Plant response rating, Oat, Wild [7, 24] | Plant response rating, Windgrass [8, 23] | Plant response rating, Windgrass [8, 24]
100: Plant response rating, Lambsquarters [2, 12] | Plant response rating, Lambsquarters [2, 16] | Plant response rating, Chamomile [5, 27] | Plant response rating, Oat, Wild [7, 27] | Plant response rating, Windgrass [8, 27]
75: Plant response rating, Windgrass [8, 26]
75%: pest or weed control at 62 g/ha ([4]; Flood)
85: Plant response rating, Oat, Wild (wild oat (Avena fatua); [14]) | Plant response rating, Canarygrass ([3]; 250 g ai/ha, scale 0 to 100)
95: Plant response rating, Oat, Wild (wild oat (Avena fatua); [15]) | Plant response rating, Oat, Wild (wild oat (Avena fatua); [16]) | Plant response rating, Surinam Grass [1, 13] | Plant response rating, Surinam Grass [1, 14] | Plant response rating, Lambsquarters [2, 13] | Plant response rating, Lambsquarters [2, 14] | Plant response rating: Windgrass [8, 21]
55%: pest or weed control at 31 g/ha ([4]; Flood)
5: Plant response rating, Wheat, Spring [6, 22] | Plant response rating, Wheat, Spring [6, 26] | Plant response rating, Oat, Wild [7, 25]
80%: pest or weed control at 125 g/ha [4, 20]
70: Plant response rating: Windgrass [8, 11]
98: Plant response rating, Surinam Grass [1, 15] | Plant response rating, Surinam Grass [1, 16] | Plant response rating, Lambsquarters [2, 9] | Plant response rating, Lambsquarters [2, 10] | Plant response rating, Lambsquarters [2, 11] | Plant response rating, Lambsquarters [2, 15]
80: Plant response rating, Oat, Wild (wild oat (Avena fatua); [12])
20: Plant response rating, Oat, Wild (wild oat (Avena fatua); [9]) | Plant response rating, Chamomile [5, 22] | Plant response rating: Wheat, Spring [6, 21] | Plant response rating: Oat, Wild [7, 11] | Plant response rating: Windgrass [8, 9]
15: Plant response rating: Wheat, Spring [6, 11] | Plant response rating, Wheat, Spring [6, 27] | Plant response rating, Windgrass [8, 22]
50: Plant response rating, Oat, Wild (wild oat (Avena fatua); [11]) | Plant response rating, Surinam Grass [1, 11] | Plant response rating, Canarygrass [3, 19]
40: Plant response rating, Oat, Wild (wild oat (Avena fatua); [13])
45: Plant response rating, Surinam Grass [1, 9] | Plant response rating, Surinam Grass [1, 10] | Plant response rating, Canarygrass [3, 18]
30: Plant response rating, Canarygrass [3, 17] | Plant response rating: Chamomile [5, 9] | Plant response rating: Chamomile [5, 10] | Plant response rating: Chamomile [5, 11] | Plant response rating, Chamomile [5, 24] | Plant response rating, Chamomile [5, 25] | Plant response rating, Chamomile [5, 26] | Plant response rating: Windgrass [8, 10]
55: Plant response rating, Oat, Wild [7, 26]
10: Plant response rating: Wheat, Spring [6, 9] | Plant response rating: Wheat, Spring [6, 10] | Plant response rating: Oat, Wild [7, 9] | Plant response rating: Oat, Wild [7, 10] | Plant response rating, Oat, Wild [7, 22] | Plant response rating, Windgrass [8, 25]
